Each block holds one compound with its values, some of them ahead of it.
Legend:
[1] = published values; cited from earlier work
[2] = In situ oxidation of ABTS^2− to ABTS^•− via HRP and H2O2 in the presence of antioxidant; assay type: biochemical
[3] = Reduction of ABTS radical monoanion in EtOH (absorbance at 750 nm); assay type: biochemical
Experimental: To probe the potential antioxidant activity of Ru1, 2,2′-azino-bis(3-ethylbenzothiazoline-6-sulfonate) radical monoanion (ABTS^•−), which is stable in aerobic, protic media and undergoes reversible one-electron reduction to ABTS^2−, was selected as the substrate for studies of catalytic radical reduction (Scheme 7).
Accompanying this degradation of 50 μM ABTS^•− was an increase in absorbance at 340 nm corresponding to the formation of 50 μM ABTS^2−, indicating 1:1 conversion of ABTS^•− to ABTS^2− by Ru1.
To assess its catalytic potential and corresponding regeneration, the reactivity of Ru1 with multiple sequential aliquots of excess ABTS^•− was examined. After the reduction of 50 μM ABTS^•− by 5 μM Ru1 (DMSO stock) was complete (FIG. 12B, black line), 5 additional 50 μM aliquots of ABTS^•− were introduced, whereupon complete ABTS^•− reduction occurred each time (FIG. 12B, grey line, 60 turnovers). Although the time required for complete degradation increased with each successive ABTS^•− aliquot, 5 μM Ru1 nonetheless remained catalytically competent for the complete reduction of […] ABTS^•−.

[4] = Stability (air, moisture, solution); assay type: physicochemical; details: isolated powder

Compound: OCCO [EG, Ethylene glycol]
- pKa [1]: 14.22

Compound: CO [MeOH, methanol]
- pKa [1]: 15.5

Compound: Cc1c(C)c2c(c(C)c1O)CCC(C)(C(=O)O)O2 (stereo not drawn) [Trolox]
- net oxidation of ABTS^2− ([2]; 5 μM Trolox, 10 μM H2O2): 75%
- time with no change in absorbance at 734 nm (ABTS^•− formation halted) ([2]; 5 μM Trolox, 10 μM H2O2): 4.2 ± 0.4 min
- initial rate of ABTS^•− formation (v0) ([2]; 5 μM antioxidant (DMSO stock), 10 nM HRP, 50 μM ABTS^2−, first 10 μM H2O2, PBS): 3.44±0.11×10^−8 M s^−1
- maximum ABTS^•− concentration ([2]; first 10 μM H2O2): 15.06 ± 0.04 µM
- time to maximum ABTS^•− concentration ([2]; first 10 μM H2O2): 22.0 ± 0.5 min
- ABTS^•− reduced ([3]; 5 μM antioxidant, 50 μM ABTS^•− in EtOH): 10 µM
- decay in radical absorbance at 750 nm ([3]; 5 μM antioxidant, 50 μM ABTS^•− in EtOH, 25° C.): 20%
- equiv. of ABTS^•− reduced vs antioxidant ([3]; EtOH, non-catalytic capacity): 2 equiv.

- stability to air and moisture [4]: air- and moisture-stable
Compound: Br.Cc1cc(C)cc(-n2c[n+](CC(=O)[O-])c3ccccc32)c1 [[1H2][Br], 2-(3-{3,5-dimethylphenyl}-benzimidazol-1-ium-1-yl)acetate hydrobromide]

Compound: CC(C)O [i-PrOH, isopropanol]
- pKa [1]: 16.5

From patent US9751081B2, “Self-regenerating antioxidant catalysts and methods of using the same” (Clemson University, priority 2014, dated 2017)
